Reference: patent publication US6455550B1, “N-alkanoylphenylalanine derivatives” (Hoffmann-La Roche Inc., priority 1997, dated 2002)

How the values were obtained:
[1] = molecular target: T1, cell-surface VLA-4 (α4β1 integrin) on Ramos cells binding to immobilized VCAM-1 (Homo sapiens, UniProt P05556+P13612); experiment: Ramos (VLA-4)/VCAM-1 Cell-Based Screening Assay (cell adhesion); settings: Calcein-AM labeled Ramos cells, VCAM-1 coated plates, 45 min at room temperature; read-out: IC50 in Ramos Cell Based Assay
T1 construct: Ramos cells bearing cell-surface VLA-4; endogenous in cells; host or cells: Ramos cells (VLA-4); VCAM-1 purified from CHO cell culture media
T1 sequence (P13612 34-1032): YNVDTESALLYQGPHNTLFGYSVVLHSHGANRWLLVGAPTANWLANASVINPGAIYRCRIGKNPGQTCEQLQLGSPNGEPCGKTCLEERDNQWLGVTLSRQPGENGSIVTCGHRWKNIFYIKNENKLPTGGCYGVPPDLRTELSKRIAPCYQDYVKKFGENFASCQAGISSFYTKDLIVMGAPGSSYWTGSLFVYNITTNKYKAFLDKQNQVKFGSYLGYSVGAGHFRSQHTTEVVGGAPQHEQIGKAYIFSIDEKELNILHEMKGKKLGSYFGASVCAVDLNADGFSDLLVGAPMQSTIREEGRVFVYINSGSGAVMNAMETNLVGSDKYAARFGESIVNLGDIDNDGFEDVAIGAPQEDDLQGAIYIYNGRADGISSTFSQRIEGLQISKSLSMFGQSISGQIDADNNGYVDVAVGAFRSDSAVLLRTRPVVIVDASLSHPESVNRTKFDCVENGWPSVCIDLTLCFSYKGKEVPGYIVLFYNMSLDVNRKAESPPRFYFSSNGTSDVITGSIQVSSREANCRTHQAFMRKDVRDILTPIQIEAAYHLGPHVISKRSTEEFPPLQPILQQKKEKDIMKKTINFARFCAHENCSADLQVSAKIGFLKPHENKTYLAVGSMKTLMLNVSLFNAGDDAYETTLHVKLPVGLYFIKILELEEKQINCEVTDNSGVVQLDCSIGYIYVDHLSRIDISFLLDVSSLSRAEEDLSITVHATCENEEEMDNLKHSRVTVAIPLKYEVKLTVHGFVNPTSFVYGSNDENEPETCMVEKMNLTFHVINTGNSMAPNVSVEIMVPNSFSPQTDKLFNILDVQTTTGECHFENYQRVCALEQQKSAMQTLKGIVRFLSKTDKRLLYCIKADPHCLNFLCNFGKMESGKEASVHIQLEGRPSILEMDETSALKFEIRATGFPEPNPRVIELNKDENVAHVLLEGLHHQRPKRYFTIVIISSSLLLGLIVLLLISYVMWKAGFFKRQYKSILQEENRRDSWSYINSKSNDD
T1 sequence (P05556 21-798): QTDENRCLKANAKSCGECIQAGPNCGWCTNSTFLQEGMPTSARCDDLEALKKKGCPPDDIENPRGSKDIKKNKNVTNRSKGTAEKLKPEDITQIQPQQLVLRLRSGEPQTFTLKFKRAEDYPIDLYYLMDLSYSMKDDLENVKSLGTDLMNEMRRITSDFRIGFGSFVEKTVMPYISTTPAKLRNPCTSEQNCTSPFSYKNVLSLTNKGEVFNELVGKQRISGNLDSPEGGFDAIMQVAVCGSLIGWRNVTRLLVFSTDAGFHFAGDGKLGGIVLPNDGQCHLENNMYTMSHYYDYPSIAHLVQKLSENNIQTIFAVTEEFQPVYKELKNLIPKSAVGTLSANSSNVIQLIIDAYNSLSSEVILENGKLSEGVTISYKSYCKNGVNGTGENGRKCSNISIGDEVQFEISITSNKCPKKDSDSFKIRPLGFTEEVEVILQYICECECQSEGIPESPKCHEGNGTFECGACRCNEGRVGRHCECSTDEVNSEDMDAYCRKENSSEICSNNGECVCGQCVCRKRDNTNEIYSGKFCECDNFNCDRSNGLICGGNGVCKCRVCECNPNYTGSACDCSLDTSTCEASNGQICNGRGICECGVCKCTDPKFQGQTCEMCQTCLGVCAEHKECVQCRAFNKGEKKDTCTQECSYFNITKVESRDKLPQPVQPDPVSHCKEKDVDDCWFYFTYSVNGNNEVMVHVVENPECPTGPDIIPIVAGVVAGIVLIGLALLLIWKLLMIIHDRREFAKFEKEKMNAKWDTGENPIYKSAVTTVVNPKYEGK

[2] = molecular target: T2, VLA-4 (α4β1 integrin) binding to immobilized VCAM-1 (Homo sapiens, UniProt P05556+P13612); experiment: VLA-4/VCAM-1 Screening Assay (solid-phase, dual antibody ELISA); settings: Ramos cell-derived VLA-4, recombinant human VCAM-1 coated plates, 2 hr at 37° C.; read-out: IC50
T2 construct: followed by 10 μl of Ramos cell-derived VLA-4; endogenous in cells; host or cells: Ramos cells (VLA-4 preparation derived from the cells)
T2 sequence (P13612 34-1032): as the sequence (P13612 34-1032) above
T2 sequence (P05556 21-798): as the sequence (P05556 21-798) above
In short: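 Recombinant human VCAM-1 is coated onto plates and Ramos cell-derived VLA-4 is added with compound (final DMSO 5%) in Tris buffer pH 7.4 with 1 mM MnCl2 and 1 mg/mL BSA, 2 hr at 37° C. Bound VLA-4 is detected by anti-β1 antibody, HRP anti-mouse IgG and K-Blue colorimetry. Results are % inhibition of total binding.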

For `COCCC1(C(=O)N[C@@H](Cc2ccc(NC(=O)c3cc(C#N)ccc3Cl)cc2)C(=O)O)CCCC1` [Example 363, 4-[(2-Chloro-5-cyanophenylcarbonyl)amino]-N-[[1-(2-methoxyethyl)cyclopentyl]carbonyl]-L-phenylalanine], which IC50 [1] is on record?
The IC50 was 11 nM.

What about the melting point of the same compound?
Its melting point is 169 to 172 °C.

What about the IC50 [2] of the same compound?
The IC50 was 0.64 nM.
